The subject of this assay is wild type NL-4.3. Briefly: multi-cycle infection assay in MT-4 cells (MTT cytoprotection). Type of assay: cell-based, HIV-1. The following applies: Human immunodeficiency virus 1, MT4, 144 h; MT-4 cells, wild type NL-4.3, 6 days, MTT; read-out: EC50 (nM) multi-cycle. The method, then: The antiviral efficacies of the integrase inhibitor compounds of the invention were evaluated based on EC50 measures obtained from two different in vitro HIV infection assay using cultured MT-4 cells: (1) a multi-cycle infection where cells were infected with wild type NL-4.3) and (2) a single-cycle infection where the cells were infected with a luciferase-bearing, envelope defective (env-) NL-4.3 virus pseudotyped with HIV-1 env (HXBc2.
The incubation period for the multi-cycle infection assay was 6 days. Cell viability (cytoprotection) and EC50 were determined using the colorimetric MTT assay (A. J. Japour et al, Antimicrobial Agents and Chemotherapy, 37, 1095-1101, 1993 and R. Pauwels et al. Journal of Virological Methods, 20, 309-321, 1988).

For orientation: EC50 means the concentration giving half of the maximal effect. `O=C(NCc1ccc2c(c1)OCO2)c1cnc(C(=O)NO)c(O)c1CO` [Example 4, N^5-(benzo[d][1,3]dioxol-5-ylmethyl)-N2,3-dihydroxy-4-(hydroxymethyl)pyridine-2,5-dicarboxamide]: the EC50 is over 10000 nM. The figure for `COc1ccc(CNC(=O)c2cnc(C(=O)NOCc3ccccc3)c(OCc3ccccc3)c2CO)cc1` [Example 5, N^2,3-bis(benzyloxy)-4-(hydroxymethyl)-N^5-(4-methoxybenzyl)pyridine-2,5-dicarboxamide] is 900 nM; for `COc1ccc(CNC(=O)c2cnc(C(=O)NO)c(O)c2CO)cc1` [Example 6, N^2,3-dihydroxy-4-(hydroxymethyl)-N^5-(4-methoxybenzyl)pyridine-2,5-dicarboxamide] it is 1000 nM. The figure for `O=C(NCc1cc(F)cc(F)c1)c1cnc(C(=O)NOCc2ccccc2)c(OCc2ccccc2)c1CO` [Example 7, N^2,3-bis(benzyloxy)-N^5-(3,5-difluorobenzyl)-4-(hydroxymethyl)pyridine-2,5-dicarboxamide] is 1500 nM; for `O=C(NCc1cc(F)cc(F)c1)c1cnc(C(=O)NO)c(O)c1CO` [Example 8, N^5-(3,5-difluorobenzyl)-N^2,3-dihydroxy-4-(hydroxymethyl)pyridine-2,5-dicarboxamide] it is over 10000 nM; for `O=C(NO)c1ncc(CNCc2ccc(F)cc2)c(CO)c1O` [Example 9] it is 1000 nM. Consider `O=C(NO)c1ncc(CNCc2cc(F)cc(F)c2)c(CO)c1O` [Example 10, 5-((3,5-difluorobenzylamino)methyl)-N,3-dihydroxy-4-(hydroxymethyl)picolinamide], for which the EC50 is over 10000 nM. With `O=C(NO)c1ncc(CNCc2ccc3c(c2)OCO3)c(CO)c1O` [Example 11, 5-((benzo[d][1,3]dioxol-5-ylmethylamino)methyl)-N,3-dihydroxy-4-(hydroxymethyl)picolinamide] the figure was 300 nM; with `COCc1c(C(=O)N(C)Cc2ccc(F)cc2)cnc(C(=O)NO)c1O` [Example 12, N^5-(4-fluorobenzyl)-N2,3-dihydroxy-4-(methoxymethyl)-N^5-methylpyridine-2,5-dicarboxamide], 14000 nM; with `O=C(NCc1ccc(F)c(Cl)c1)c1cnc(C(=O)NOCc2ccccc2)c(OCc2ccccc2)c1CO` [Example 13, N^2,3-bis(benzyloxy)-N^5-(3-chloro-4-fluorobenzyl)-4-(hydroxymethyl)pyridine-2,5-dicarboxamide], over 10000 nM. The figure for `O=C(NCc1ccc(Cl)c(Cl)c1)c1cnc(C(=O)NOCc2ccccc2)c(OCc2ccccc2)c1CO` [Example 15, N^2,3-bis(benzyloxy)-N^5-(3,4-dichlorobenzyl)-4-(hydroxymethyl)pyridine-2,5-dicarboxamide] is over 10000 nM. With `O=C(NCc1ccc(Cl)c(Cl)c1)c1cnc(C(=O)NO)c(O)c1CO` [Example 16, N^5-(3,4-dichlorobenzyl)-N^2,3-dihydroxy-4-(hydroxymethyl)pyridine-2,5-dicarboxamide] the figure was 700 nM. For `COc1ccc(COCc2cnc(C(=O)NO)c(O)c2CO)cc1` [Example 17, N,3-Dihydroxy-4-(hydroxymethyl)-5-((4-methoxybenzyloxy)methyl)-picolinamide], the EC50 came to 2000 nM. The figure for `COc1ccc(COCc2cnc(C(=O)NO)c3c2COC(C)(C)O3)cc1` [Example 19, N-hydroxy-5-((4-methoxybenzyloxy)methyl)-2,2-dimethyl-4H-[1,3]dioxino[4,5-c]pyridine-8-carboxamide] is 5060 nM. With `O=C(NCc1ccc(F)c(F)c1)c1cnc(C(=O)NO)c(O)c1CO` [Example 20, N^5-(3,4-difluorobenzyl)-N^2,3-dihydroxy-4-(hydroxymethyl)pyridine-2,5-dicarboxamide] the figure was 30 nM; with `O=C(NO)c1ncc(CNc2ccc(F)cc2)c(CO)c1O` [Example 21, 5-[(4-Fluoro-phenylamino)-methyl]-3-hydroxy-4-hydroxymethyl-pyridine-2-carboxylic Acid Hydroxyamide], 4.3 nM.

The record behind these values is US8742123B2, “HIV integrase inhibitors from pyridoxine” (TaiMed Biologics, Inc., priority 2008, dated 2014).
